From patent US5602259A, “Method for producing 4-hydroxy-5-methyl-3[2H]-furanone and uses of same” (priority 1993, dated 1997)

Assays:
[1] = Anti-oxidation activity (1): inhibition of autonomous oxidation of linolenic acid, absorbance at 500 nm; format: biochemical; conditions: for concentration showing 90% inhibition of autonomous oxidation of linolenic acid: pH 7.4, 37° C., 24 hours, for the extract: concentration of 4-hydroxy-5-methyl-3[2H]-furanone
Protocol: (§1) An anti-oxidation activity of 4-hydroxy-5-methyl-3[2H]-furanone was examined as follows:
To 1.0 ml of 0.2M potassium phosphate buffer(pH 7.4) containing 2 mg/ml of linolenic acid and 10 mg/ml of Tween-20 was added the extract obtained from Lichrosorb RP-18 column in Example 1, which contains a serial concentrations of 10~2000 ppm of 4-hydroxy-5-methyl-3[2H]-furanone. […] The resulting mixture was allowed at 37° C. for 24 hours. 0.1 ml of the reaction mixture was taken and diluted with 9.7 ml of ethanol. 0.1 ml of 30% ammonium thiocyanide and 0.1 ml of a mixture of 5% ferrous ammonium sulfate and 3.5% […] were added, and 3 minutes later, an absorbance at 500 nm was measured to evaluate an automatic oxidation of fatty acid.

[2] = Anti-oxidation activity (2): prevention of oxidation of unsaturated fatty acid over time (FIG. 5); format: biochemical; conditions: 200 ppm, 37° C., pH 7.4
Protocol: as §1
1.0 ml of 0.2M potassium phosphate buffer(pH 7.4) containing 2mg/ml of linolenic acid, 10 mg/ml of Tween-20 and 200 ppm of L-ascorbic acid, tocopherol or 4-hydroxy-5-methyl-3[2H]-furanone was allowed to stand at 37° C. for 24 hours. For a control, 1.0 ml of 0.2M potassium phosphate buffer(pH 7.4) containing 2 mg/ml of linolenic acid and 10 mg/ml of Tween-20 was employed.
The same procedure as that of Experimental Example 2 was carried out to evaluate the anti-oxidation activity of test compounds.
In FIG. 5, the longitudinal axis indicates an amount of fatty peroxide represented by an absorbance at 500 nm and the horizontal axis indicates the time in days.

[3] = system: murine melanoma cells; experiment: Inhibitive effect on melanin formation in melanoma cells; format: cell-based; conditions: Mus musculus, 48 h, 37° C., by observing the color of the cells, read-out: concentration with inhibitive effect on melanin formation within melanoma cells
Protocol: (§2) 4-hydroxy-5-methyl-3[2H]-furanone obtained by the method of the invention has an excellent activity to inhibit melanin formation.
To a T-shaped flask containing […] of Eagle's medium containing 10% fetal calf essential medium was added murine melanoma cells in an amount of 5×10^4 cells/30 ml. […] After the cultivation, the cells were collected and examined for melanin formation of the cells by observing the color of the cells.

[4] = target: T1, tyrosinase (Agaricus bisporus, UniProt C7FF04); experiment: Tyrosinase-inhibiting action; format: biochemical; conditions: pH 6.8, 37° C., 10 minutes, tyrosine substrate
T1 construct: purchased SIGMA
T1 sequence (C7FF04 2-392 limits assumed): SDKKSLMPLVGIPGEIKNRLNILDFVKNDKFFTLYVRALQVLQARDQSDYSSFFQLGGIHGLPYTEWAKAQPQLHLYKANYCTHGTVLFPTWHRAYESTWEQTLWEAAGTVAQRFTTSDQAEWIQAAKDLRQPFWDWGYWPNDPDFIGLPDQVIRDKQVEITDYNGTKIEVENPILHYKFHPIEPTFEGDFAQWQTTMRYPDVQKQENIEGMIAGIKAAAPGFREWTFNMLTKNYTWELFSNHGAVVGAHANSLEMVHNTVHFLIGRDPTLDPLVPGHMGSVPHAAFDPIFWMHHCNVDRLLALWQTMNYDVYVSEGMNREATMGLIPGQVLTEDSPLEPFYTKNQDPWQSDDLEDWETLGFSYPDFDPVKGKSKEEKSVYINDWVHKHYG
Protocol: As an enzyme, tyrosinase purchased from SIGMA was used. […] Water were used to dilute the test compounds. As a control, 0.9 ml of 1:1 mixture of ethanol and water was used. […] The test tube was quickly cooled in an ice water bath to stop the reaction, and the absorbance was measured at 475 nm. The tyrosinase-inhibitory activities of the test compounds were calculated by using the following equation: [formula] From the inhibitions(%) of a series of dilutions of test compounds, IC50, i.e., the concentration of test compound which inhibit tyrosinase by 50% was calculated for each test compound.

[5] = in vitro; format: cell-based; conditions: fibroblast cells
Source text: as §2

IC50 [4] [µM]	MCC at 48 h [5] [µg/mL]	SMILES	concentration showing 90% inhibition of autonomous oxidation of linolenic acid [1] [ppm]	anti-oxidation activity (in words) ([1]; compared with maltol, kojic acid or L-ascorbic acid)	prevention of oxidation of unsaturated fatty acid (in words) [2]	minimal effective concentration [3] [µg/mL]
–	–	Cc1occc(=O)c1O [maltol]	460	–	–	–
52.6	> 500	CC1=C(O)C(=O)CO1 [4-hydroxy-5-methyl-3[2H]-furanone]	–	superior over maltol, kojic acid or L-ascorbic acid	can prevent more efficiently the oxidation of unsaturated fatty acid than the same amount of L-ascorbic acid or α-tocopherol	10 to 20
–	> 500	O=c1cc(CO)occ1O [kojic acid]	600	–	–	–
–	50	O=C1O[C@H]([C@@H](O)CO)C(O)=C1O [ascorbic acid, L-ascorbic acid]	–	–	–	–
